Measurements as given in ChEMBL document CHEMBL4665865, “New series of isoxazole derivatives targeting EGFR-TK: Synthesis, molecular modeling and antitumor evaluation” (Bioorg Med Chem, 2020).

How the values were obtained:
HepG2 = test: Antitumor activity against human HepG2 cells assessed as inhibition of cell viability by MTT assay; type: functional, cell-based
HCT-116 = test: Antitumor activity against human HCT-116 cells assessed as inhibition of cell viability by MTT assay; type: functional, cell-based
[1] = target: Epidermal growth factor receptor (Homo sapiens, UniProt P00533); test: Inhibition of EGFR-TK (unknown origin) relative to control
[2] = Lipophilicity, logP of the compound; type: physicochemical; conditions: octanol/water
MCF7 = test: Antitumor activity against human MCF7 cells assessed as inhibition of cell viability by MTT assay; type: functional, cell-based
DNA topoisomerase 2-beta = DNA topoisomerase 2-beta (Homo sapiens, UniProt Q02880); test: Inhibition of Topoisomerase II beta (unknown origin) relative to control
Sequence of DNA topoisomerase 2-beta (Q02880 whole entry): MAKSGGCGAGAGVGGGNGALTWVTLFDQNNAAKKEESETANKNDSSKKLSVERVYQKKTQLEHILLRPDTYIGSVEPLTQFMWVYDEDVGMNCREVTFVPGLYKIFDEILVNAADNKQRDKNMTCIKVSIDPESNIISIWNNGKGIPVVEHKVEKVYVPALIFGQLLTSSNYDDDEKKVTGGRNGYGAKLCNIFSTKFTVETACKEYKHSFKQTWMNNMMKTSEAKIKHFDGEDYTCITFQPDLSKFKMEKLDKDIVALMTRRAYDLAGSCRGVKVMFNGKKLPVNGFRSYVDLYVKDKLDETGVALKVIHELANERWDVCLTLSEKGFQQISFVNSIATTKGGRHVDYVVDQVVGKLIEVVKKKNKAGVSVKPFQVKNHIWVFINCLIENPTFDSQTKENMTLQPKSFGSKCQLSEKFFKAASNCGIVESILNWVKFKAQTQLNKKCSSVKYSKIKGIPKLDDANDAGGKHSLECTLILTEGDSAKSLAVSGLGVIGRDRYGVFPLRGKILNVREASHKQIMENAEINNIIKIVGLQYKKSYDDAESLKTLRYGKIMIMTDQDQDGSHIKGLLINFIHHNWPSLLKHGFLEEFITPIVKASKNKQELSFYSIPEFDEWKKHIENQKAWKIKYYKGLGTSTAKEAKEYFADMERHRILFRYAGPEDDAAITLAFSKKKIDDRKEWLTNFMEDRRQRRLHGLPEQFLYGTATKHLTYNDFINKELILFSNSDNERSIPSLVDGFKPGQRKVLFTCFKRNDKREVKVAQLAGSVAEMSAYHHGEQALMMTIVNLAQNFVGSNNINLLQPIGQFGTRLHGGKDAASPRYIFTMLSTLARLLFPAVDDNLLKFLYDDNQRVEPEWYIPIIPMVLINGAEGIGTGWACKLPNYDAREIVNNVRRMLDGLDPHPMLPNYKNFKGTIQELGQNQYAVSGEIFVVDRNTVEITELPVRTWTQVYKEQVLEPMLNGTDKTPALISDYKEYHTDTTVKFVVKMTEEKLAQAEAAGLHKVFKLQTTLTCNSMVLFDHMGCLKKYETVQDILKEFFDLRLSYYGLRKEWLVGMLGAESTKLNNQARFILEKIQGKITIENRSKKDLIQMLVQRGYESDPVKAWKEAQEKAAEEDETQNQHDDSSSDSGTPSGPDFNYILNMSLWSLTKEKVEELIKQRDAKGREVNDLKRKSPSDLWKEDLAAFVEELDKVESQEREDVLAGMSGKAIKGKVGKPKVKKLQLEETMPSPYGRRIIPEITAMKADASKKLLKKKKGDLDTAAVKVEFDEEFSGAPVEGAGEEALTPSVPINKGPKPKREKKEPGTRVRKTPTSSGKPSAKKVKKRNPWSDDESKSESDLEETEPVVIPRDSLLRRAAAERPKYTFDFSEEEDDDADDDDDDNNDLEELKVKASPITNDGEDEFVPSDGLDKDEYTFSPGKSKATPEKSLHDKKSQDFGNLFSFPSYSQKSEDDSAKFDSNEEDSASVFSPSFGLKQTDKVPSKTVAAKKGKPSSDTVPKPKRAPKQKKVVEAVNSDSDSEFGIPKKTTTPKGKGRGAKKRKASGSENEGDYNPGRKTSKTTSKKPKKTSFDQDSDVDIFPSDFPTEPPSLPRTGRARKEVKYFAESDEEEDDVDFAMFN

Sequence of Epidermal growth factor receptor (P00533 whole entry): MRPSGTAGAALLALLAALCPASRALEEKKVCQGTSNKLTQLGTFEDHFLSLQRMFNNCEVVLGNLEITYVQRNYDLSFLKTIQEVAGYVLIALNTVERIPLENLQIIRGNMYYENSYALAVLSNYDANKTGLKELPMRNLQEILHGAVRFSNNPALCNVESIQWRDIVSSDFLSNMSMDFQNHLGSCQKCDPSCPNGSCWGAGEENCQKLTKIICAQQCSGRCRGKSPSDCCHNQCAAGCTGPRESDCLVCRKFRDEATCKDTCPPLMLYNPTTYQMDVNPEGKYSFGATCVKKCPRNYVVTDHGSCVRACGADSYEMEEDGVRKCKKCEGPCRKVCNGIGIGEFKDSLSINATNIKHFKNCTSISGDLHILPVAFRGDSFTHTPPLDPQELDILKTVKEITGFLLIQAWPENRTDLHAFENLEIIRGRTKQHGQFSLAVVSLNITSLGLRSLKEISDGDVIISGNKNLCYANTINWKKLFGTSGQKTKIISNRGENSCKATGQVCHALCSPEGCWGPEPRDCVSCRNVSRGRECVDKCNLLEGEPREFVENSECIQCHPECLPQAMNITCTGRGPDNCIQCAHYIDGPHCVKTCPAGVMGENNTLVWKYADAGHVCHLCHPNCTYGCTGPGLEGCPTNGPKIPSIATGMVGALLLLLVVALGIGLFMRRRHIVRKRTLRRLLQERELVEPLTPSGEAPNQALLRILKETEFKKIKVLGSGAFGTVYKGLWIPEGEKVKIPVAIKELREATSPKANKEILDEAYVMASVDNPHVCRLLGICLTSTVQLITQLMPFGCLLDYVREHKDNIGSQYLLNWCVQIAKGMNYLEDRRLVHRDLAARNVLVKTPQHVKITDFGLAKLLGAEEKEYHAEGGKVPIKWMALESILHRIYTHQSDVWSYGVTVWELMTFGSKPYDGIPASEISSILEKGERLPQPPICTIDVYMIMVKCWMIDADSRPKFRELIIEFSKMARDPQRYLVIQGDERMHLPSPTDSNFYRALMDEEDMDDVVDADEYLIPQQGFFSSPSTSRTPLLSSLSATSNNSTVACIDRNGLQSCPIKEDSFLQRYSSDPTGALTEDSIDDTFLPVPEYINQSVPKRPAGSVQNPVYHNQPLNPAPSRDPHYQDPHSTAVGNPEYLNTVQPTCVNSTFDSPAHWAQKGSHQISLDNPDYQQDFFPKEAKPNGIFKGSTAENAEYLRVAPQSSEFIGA

| IC50 (HepG2) | IC50 (HCT-116) | IC50 [1] | logP [2] | IC50 (MCF7) | IC50 (DNA topoisomerase 2-beta) | Structure (SMILES) |
| --- | --- | --- | --- | --- | --- | --- |
| 23.8 µM | 20.8 µM | 0.081 µM | 0.24 | 14.8 µM | – | Cc1cc(NC2=NC(=O)CS2)no1 |
| 35 µM | 26.2 µM | 0.064 µM | 1.93 | 16.7 µM | – | Cc1cc(NC(=O)CN2CCN(c3ccccc3)CC2)no1 |
| 50.3 µM | 73.2 µM | – | 1.63 | 44.8 µM | – | Cc1cc(NC(=O)CN2CCN(Cc3ccccc3)CC2)no1 |
| 57.1 µM | 78.4 µM | – | 3.36 | 47.9 µM | – | CC(C)(C)c1cc(NC(=O)CN2CCN(Cc3ccccc3)CC2)no1 |
| 39.1 µM | 38.4 µM | – | 2.33 | 27.1 µM | – | CCN1CCN(CC(=O)Nc2cc(C(C)(C)C)on2)CC1 |
| 43.8 µM | 62.8 µM | – | – | 32.5 µM | – | CC(C)(C)c1cc(NC2=NC(=O)/C(=C\c3ccc(Cl)c(Cl)c3)S2)no1 |
| 62 µM | 75.3 µM | – | – | 48.9 µM | – | Cc1cc(NC(=O)CCCl)no1 |
| 28.4 µM | 24.7 µM | 0.066 µM | 3.66 | 17.2 µM | – | CC(C)(C)c1cc(NC(=O)CN2CCN(c3ccccc3)CC2)no1 |
| > 100 µM | > 100 µM | – | – | > 100 µM | – | Cc1cc(N2C(=O)c3c(Cl)c(Cl)c(Cl)c(Cl)c3C2=O)no1 |
| 52.2 µM | 69 µM | – | 0.51 | 45.7 µM | – | CCN1CCN(CCC(=O)Nc2cc(C)on2)CC1 |
| 79.2 µM | 94.2 µM | – | 5.89 | 67.6 µM | – | CC(C)(C)c1cc(NC2=NC(=O)/C(=C\c3ccc4ccccc4c3)S2)no1 |
| 63.5 µM | 88.2 µM | – | 0.23 | 65.1 µM | – | Cc1cc(NC(=O)CN2CCN(C)CC2)no1 |
| > 100 µM | > 100 µM | – | 1.86 | 74.6 µM | – | CN1CCN(CCC(=O)Nc2cc(C(C)(C)C)on2)CC1 |
| > 100 µM | > 100 µM | – | – | > 100 µM | – | CC(C)(C)c1cc(NC2=NC(=O)/C(=C\c3ccc(Br)s3)S2)no1 |
| 56.7 µM | 75.8 µM | – | 0.14 | 44.2 µM | – | Cc1cc(NC(=O)CCN2CCN(C)CC2)no1 |
| 45.2 µM | 40.6 µM | – | – | 37.7 µM | – | Cc1cc(NC2=NC(=O)/C(=C\c3ccc(Cl)c(Cl)c3)S2)no1 |
| 31.1 µM | 31.8 µM | – | – | 21.4 µM | – | Cc1cc(NC2=NC(=O)/C(=C\c3c(F)cccc3Cl)S2)no1 |
| – | – | – | – | – | 0.727 µM | COc1cccc2c1C(=O)c1c(O)c3c(c(O)c1C2=O)C[C@@](O)(C(=O)CO)C[C@@H]3O[C@H]1C[C@H](N)[C@H](O)[C@H](C)O1 [DOXORUBICIN] |
| 32.8 µM | 36.6 µM | – | – | 24.2 µM | – | Cc1cc(NC2=NC(=O)/C(=C\c3ccc(Br)s3)S2)no1 |
| 91.6 µM | > 100 µM | – | – | 70.6 µM | – | CC(C)(C)c1cc(NC2=NC(=O)/C(=C\c3c(F)cccc3Cl)S2)no1 |
| 41.6 µM | 58.3 µM | – | – | 30.3 µM | – | Cc1cc(NC2=NC(=O)/C(=C\c3ccco3)S2)no1 |
| 25 µM | 28 µM | 0.144 µM | 1.91 | 19.6 µM | – | CC(C)(C)c1cc(NC(=O)CN2CCOCC2)no1 |
| 71.5 µM | 89.6 µM | – | – | 51.9 µM | – | Cc1cc(NC(=O)CCN2CCOCC2)no1 |

The next lines start with the molecule.

| Structure (SMILES) | IC50 (HepG2) | IC50 (HCT-116) | IC50 [1] | logP [2] | IC50 (MCF7) | IC50 (DNA topoisomerase 2-beta) |
| --- | --- | --- | --- | --- | --- | --- |
| Cc1cc(NC2=NC(=O)/C(=C\c3ccc(-c4ccccc4)cc3)S2)no1 | > 100 µM | > 100 µM | – | 4.78 | > 100 µM | – |
| CC(C)(C)c1cc(NC(=O)CCN2CCOCC2)no1 | 93.5 µM | > 100 µM | – | – | 78.2 µM | – |
| CCN1CCN(CC(=O)Nc2cc(C)on2)CC1 | 19.5 µM | 17.6 µM | 0.081 µM | 0.61 | 12.6 µM | – |
| Cc1cc(NC(=O)CCN2CCN(c3ccccc3)CC2)no1 | 51.8 µM | 46.1 µM | – | 1.84 | 29.1 µM | – |
| CN1CCN(CC(=O)Nc2cc(C(C)(C)C)on2)CC1 | 65.3 µM | 80.1 µM | – | 1.96 | 56.2 µM | – |
| Cc1cc(NC(=O)CCl)no1 | 11.1 µM | 13.1 µM | 0.106 µM | 0.55 | 10.4 µM | – |
| CC(C)(C)c1cc(NC(=O)CCCl)no1 | 74.8 µM | 92.6 µM | – | – | 59.8 µM | – |
| CC(C)(C)c1cc(NC2=NC(=O)/C(=C\c3ccc(Br)cc3)S2)no1 | 48.2 µM | 64.4 µM | – | 5.51 | 36.1 µM | – |
| CC(C)(C)c1cc(NC(=O)CCl)no1 | 9.74 µM | 9.96 µM | 0.124 µM | 2.27 | 7.15 µM | – |
| CC(C)(C)c1cc(N2C(=O)c3c(Cl)c(Cl)c(Cl)c(Cl)c3C2=O)no1 | > 100 µM | > 100 µM | – | – | 88.3 µM | – |
| Cc1ccc(/C=C2/SC(Nc3cc(C(C)(C)C)on3)=NC2=O)cc1 | 55.4 µM | 51.3 µM | – | 5.15 | 39.6 µM | – |
| CCN1CCN(CCC(=O)Nc2cc(C(C)(C)C)on2)CC1 | 76.4 µM | 91.2 µM | – | 2.24 | 61.3 µM | – |
| Cc1ccc(/C=C2/SC(Nc3cc(C)on3)=NC2=O)cc1 | > 100 µM | > 100 µM | – | 3.43 | > 100 µM | – |
| CC(C)(C)c1cc(NC2=NC(=O)/C(=C\c3ccco3)S2)no1 | 68.2 µM | 66.7 µM | – | – | 42.9 µM | – |
| Cc1cc(NC(=O)CN2CCOCC2)no1 | > 100 µM | > 100 µM | – | 0.19 | 81.8 µM | – |
| CC(C)(C)c1cc(N2C(=O)c3c(Br)c(Br)c(Br)c(Br)c3C2=O)no1 | 90.4 µM | > 100 µM | – | – | 64.9 µM | – |
| Cc1cc(N2C(=O)c3c(Br)c(Br)c(Br)c(Br)c3C2=O)no1 | > 100 µM | > 100 µM | – | – | > 100 µM | – |
| CC(C)(C)c1cc(NC2=NC(=O)/C(=C\c3ccc(-c4ccccc4)cc3)S2)no1 | 84.7 µM | 86.4 µM | – | 6.5 | 59.3 µM | – |
| Cc1cc(NC2=NC(=O)/C(=C\c3ccc4ccccc4c3)S2)no1 | > 100 µM | > 100 µM | – | 4.16 | > 100 µM | – |
| CC(C)(C)c1cc(NC(=O)CCN2CCN(c3ccccc3)CC2)no1 | 37.1 µM | 33.6 µM | – | 3.56 | 23 µM | – |
| Cc1cc(NC(=O)CCN2CCN(Cc3ccccc3)CC2)no1 | 89.4 µM | > 100 µM | – | 1.54 | 92.2 µM | – |
| CC(C)(C)c1cc(NC(=O)CCN2CCN(Cc3ccccc3)CC2)no1 | 83 µM | 85.2 µM | – | 3.26 | 55.4 µM | – |
| Cc1cc(NC2=NC(=O)/C(=C\c3ccc(Br)cc3)S2)no1 | 87.8 µM | 95 µM | – | 3.79 | 68.7 µM | – |
| CC(C)(C)c1cc(NC2=NC(=O)CS2)no1 | 18.3 µM | 11.5 µM | 0.15 µM | 1.97 | 9.42 µM | – |
